PMC6687188, “Novel lactate dehydrogenase inhibitors with in vivo efficacy against Cryptosporidium parvum” (PLoS Pathogens, 2019)

target: recombinant CpLDH protein (Cryptosporidium parvum, UniProt Q9GT92, F198L/K295E/R251K)

| SMILES | MEAN CpLDH INHIBITION (%) |
| --- | --- |
| COC(=O)NC1C(C)OC(OC2C/C=C(/C)C3C=CC4C(OC5CC(OC6CCC(OC7CC(O)C(OC8CCC(O)C(C)O8)C(C)O7)C(C)O6)C(OC(C)=O)C(C)O5)C(C)CC(C)C4C3(C)/C(O)=C3/C(=O)OC4(CC(C=O)=CC(O)C4/C=C\2C)C3=O)CC1(C)[N+](=O)[O-] (stereo not shown) [NSC333856] | -2.71% |
| CCOC(=O)C1=C(O)CSC1=Nc1ccc(N=C2SCC(O)=C2C(=O)OCC)cc1 [NSC623746] | -45.42% |
| COc1ccc(-c2cc(=O)c3c(O)cc(O)cc3o2)cc1OC [NSC128305] | -10.13% |
| Cl.Cl.Cl.Cl.NCCCNCCCCNCCCN [NSC69852] | -11.66% |
| O=c1ncccn1C1OC(CO)C(O)C1F (stereo not shown) [NSC625355] | -50.28% |
| CC(=O)c1sc2c(c1OC(=O)c1ccc(Cl)cc1Cl)c(=O)n(-c1ccccc1)c(=S)n2-c1ccccc1 [NSC671136] | -17.97% |
| O=[N+]([O-])c1ccccc1S(=O)(=O)c1ccccc1[N+](=O)[O-] [NSC633001] | -15.73% |
| CC(C)(Br)C(=O)C(Br)Br [NSC1027] | -2.97% |
| O=C1C=CC(CC(=O)c2ccc3ccccc3c2)O1 (stereo not shown) [NSC634650] | -31.23% |
| CN(C)C[C@H]1CC[C@@H](CN(C)C)C1=O.Cl [NSC640391] | -1.88% |
| COC1OC(COCc2ccc(Cl)cc2)C(OCc2ccc(Cl)cc2)C1O (stereo not shown) [NSC626120] | -0.60% |
| C[C@]12CC[C@@H]3c4ccccc4CC[C@H]3[C@@H]1CC[C@@H]2O [NSC22194] | -50.61% |
| N=N/C(=C\c1c(O)[nH]c2ccccc12)c1ccccc1 [NSC175274] | -25.99% |
| CCOC(=O)/C=C/c1c(C)[nH]c(=O)[nH]c1=O [NSC159935] | -51.31% |
| [Cl][Hg][c]1ccc2ccccc2c1 [NSC174163] | -16.59% |
| Cc1c2c(cc3c1[nH]c1ccccc13)C=NCC2 [NSC86100] | -9.40% |
| Cc1ccc(C)c(NC(=O)C(=O)C(C(=O)c2ccc3ccccc3c2)C2OC(=O)c3ccccc32)c1 (stereo not shown) [NSC640985] | -66.15% |
| O=[N+]([O-])c1ccc2oc(=Nc3ccccc3)c(Nc3ccccc3)nc2c1 [NSC671424] | -1.46% |
| Cc1ccc(NC(=O)c2cccc([N+](=O)[O-])c2O)c(C)c1 [NSC79456] | -17.92% |
| CC(=O)OC[C@H]1O[C@@H](NC(=O)N(CCCl)N=O)[C@H](OC(C)=O)[C@@H](OC(C)=O)[C@@H]1OC(C)=O [NSC245432] | -45.30% |
| CC(C)OP(=O)(OC(C)C)C(N(C)C)P(=O)(OC(C)C)OC(C)C.[Cl][Sn]([Cl])([Cl])[c]1ccccc1 [NSC645567] | -28.84% |
| CC(=O)C1=C(O)C2(O)C(=O)c3c(c(C)c4ccc(C)c(O)c4c3O)CC2C(N)C1=O.CCCCCCCCCCCCOS(=O)(=O)O (stereo not shown) [NSC73495] | -99.50% |

| SMILES | MEAN CpLDH INHIBITION (%) |
| --- | --- |
| Nc1nc2n[nH]nc2c(=O)[nH]1 [NSC749] | -18.77% |
| O=C1C=C2C=CC3CC2(O1)C1CCCCN31 (stereo not shown) [NSC107415] | -39.15% |
| C=C(Cl)C(Cl)(CBr)CCC(Br)C(C)(C)Cl (stereo not shown) [NSC662825] | -7.35% |
| C=C(C)[C@@H]1CC[C@]2(C)CC[C@]3(C)[C@H](CC[C@@H]4[C@@]5(C)CC[C@H](O)C(C)(C)[C@@H]5CC[C@]43C)[C@@H]12 [NSC90487] | -42.73% |
| Cc1ccc(Nc2nc(C)c(C(/C=C/c3ccc(/C=C/C(=N\NC(=O)C[n+]4ccccc4)c4sc(Nc5ccc(C)cc5[N+](=O)[O-])nc4C)cc3)=N/NC(=O)C[n+]3ccccc3)s2)c([N+](=O)[O-])c1.Cl [NSC640342] | -89.53% |
| O=Nc1ccc(O)c2ncccc12 [NSC3852] | -37.64% |
| COc1ccc(/C=C2\Cc3ccccc3C2=O)cc1OC [NSC643174] | -15.39% |
| CC1=C2C(=CC(C)(C)[C@@H]2O)C(=O)[C@](C)(O)C12CC2 [NSC400978] | -79.24% |
| N#CC1(C#N)C2C=CC(c3coc4cccc2c34)C1(C#N)C#N (stereo not shown) [NSC629301] | -23.71% |
| CC[C@@]1(O)C[C@H](O[C@H]2C[C@H](N(C)C)[C@H](O)[C@H](C)O2)c2c(cc3c(c2O)C(=O)c2c(O)ccc(O)c2C3=O)[C@H]1C(=O)OC [NSC267229] | -179.02% |
| CN=c1sc2c(n1C)C(=O)c1ccccc1C2=O [NSC659501] | -27.66% |
| Cc1c(C(=O)C/C(=N/NC(=O)CC#N)C(N)=O)[n+](=O)c2ccccc2n1[O-] [NSC635542] | -10.72% |
| COc1ccccc1[S+]([O-])Nc1ccccc1 (stereo not shown) [NSC676561] | -16.89% |
| O=C(CCCN1CCC(C(O)c2ccc(F)cc2)CC1)c1ccc(F)cc1 (stereo not shown) [NSC343513] | -0.97% |
| Cc1[nH]c(=O)nc(N/N=C/c2ccc(Cl)cc2)c1C(=O)Nc1ccc(Cl)cc1 [NSC624947] | -0.76% |
| COC(=O)c1ccc(NCc2cc(O)ccc2O)cc1 [NSC654705] | -2.14% |
| Cc1ccc(/C=C2\CNC/C(=C\c3ccc(C)cc3)C2=O)cc1.Cl [NSC632839] | -15.78% |
| CN(C)c1ccc(/C=C/C(=O)[O-])cc1.CN(C)c1ccc(/C=C/C(=O)[O-])cc1.[Cu+2] [NSC643351] | -4.10% |
| c1ccc2c(c1)nnn1c3cnccc3nc21 [NSC128734] | -52.88% |
| C=C(NC(=O)C(=C)NC(=O)c1csc(C2=N[C@@H]3c4csc(n4)[C@H]4NC(=O)c5csc(n5)[C@H]([C@](C)(O)[C@@H](C)O)NC(=O)[C@H]5CSC(=N5)/C(=C/C)NC(=O)[C@H]([C@@H](C)O)NC(=O)c5csc(n5)[C@]3(CC2)NC(=O)[C@H](C)NC(=O)C(=C)NC(=O)C(=C)NC(=O)[C@H](C(C)C)N[C@@H]2C=Cc3c([C@H](C)O)cc(nc3[C@H]2O)C(=O)O[C@@H]4C)n1)C(N)=O [NSC285116] | -2.26% |
| CCCCn1c2c(n(CCCC)c1=S)-c1c(n(CCCC)c(=S)n1CCCC)SSSS2 [NSC700582] | -83.75% |
| O=[N+]([O-])c1ccc2c(c1)/C(=N/N=C1c3ccccc3Cc3ccccc31)c1cc([N+](=O)[O-])cc([N+](=O)[O-])c1-2 [NSC658139] | -4.51% |

| SMILES | MEAN CpLDH INHIBITION (%) |
| --- | --- |
| CCCCOc1ccc(NC(N)=Nc2ccc(Cl)cc2)cc1 [NSC78365] | -60.70% |
| N[C@@H](Cc1ccc2oc3cc(=O)c4ccccc4c-3nc2c1)C(=O)O [NSC672425] | -0.60% |
| Cc1[nH]c(=O)[nH]c(=O)c1/C=C/C(=O)NC(CO)CC(C)C (stereo not shown) [NSC224117] | -0.81% |
| Nc1nc(N)c(N=Nc2ccccc2)c(=O)[nH]1 [NSC5200] | -51.63% |
| COC(=O)NC1C(C)OC(OC2C/C=C(/C)C3C=CC4C(OC5CC(OC6CC(O)C(OC7CC(O)C(OC)C(C)O7)C(C)O6)C(O)C(C)O5)C(C)CC(C)C4C3(C)/C(O)=C3\C(=O)OC4(CC(C)C(CO)=CC4/C=C\2C)C3=O)CC1(C)[N+](=O)[O-] (stereo not shown) [NSC363182] | -79.07% |
| O=C1C=C(NCCc2ccccc2)c2ccccc2C1=O [NSC637731] | -17.56% |
| CC[C@@]1(O)C[C@H](O[C@H]2C[C@H](N(C)C)[C@H](O[C@H]3C[C@H](O)[C@H](O[C@H]4C[C@H](O)[C@H](O)[C@H](C)O4)[C@H](C)O3)[C@H](C)O2)c2c(cc3c(c2O)C(=O)c2c(O)ccc(O)c2C3=O)[C@H]1C(=O)OC [NSC265211] | -47.33% |
| CCCCCCCCCCSCC(CO)NC(=O)/C=C/c1c(C)[nH]c(=O)[nH]c1=O (stereo not shown) [NSC265473] | -39.94% |
| C=CC(=O)N1C/C(=C\c2ccccc2)C(=O)/C(=C/c2ccccc2)C1 [NSC632841] | -21.11% |
| CCOC(=O)/N=C(\N)SCc1ccccc1 [NSC622684] | -0.38% |
| C[n+]1ccc(Nc2ccc(NC(=O)c3ccc(Nc4cc[n+](C)c5ccc([N+](=O)[O-])cc45)cc3[N+](=O)[O-])cc2)cc1.Cl [NSC218439] | -11.45% |
| NC(=S)NN=Cc1ncccc1O [NSC95678] | -37.43% |
| CC(=O)NC1C(OCc2ccccc2)OC(CO)C(O)C1OC(C)C(=O)NC(C(=O)NC(CCC(=O)NCCCCNc1c2ccccc2nc2cccc([N+](=O)[O-])c12)C(N)=O)C(C)C (stereo not shown) [NSC697468] | -5.22% |
| CC(=O)N=C1N(/C=C2\C(=O)Oc3ccccc3C2=O)C(=O)/C(=C/c2ccccc2Cl)N1C [NSC658494] | -56.68% |
| Cc1cc(Cl)cc2c1NC(=O)C2(O)C(C(=O)c1ccccc1)c1ccccc1 (stereo not shown) [NSC635435] | -63.48% |
| Cc1cc(O)c(/C=N/C(N)=S)c(=O)o1 [NSC657449] | -13.90% |
| N#C/C(=C\c1ccc2ccccc2c1)C(=O)c1ccccc1 [NSC643186] | -12.83% |
| CCSC(=O)N1c2ccc(OC)cc2C=CC1C#N (stereo not shown) [NSC165897] | -41.74% |
| CCOC(=O)CNC(=O)NC12CC3CC(CC(C3)C1)C2 [NSC208914] | -37.53% |
| COc1cccc2c1C(=O)c1c(O)c3c(c(O)c1C2=O)C[C@@](O)(C(C)=O)C[C@@H]3O[C@@H]1C[C@@H](N(C)C)[C@@H](O)[C@@H](C)O1 [NSC258812] | -2.78% |
